tested on: Male ddY mice; assay: Forced swim test; format: in vivo; conditions: Mus musculus, oral, dose 10 mg/kg, 4 hours after administration, immobility time measured for six minutes, ratio to control group (0.5% methylcellulose)
Description: (Test Example) Forced Swim Test
Male ddY mice (4 weeks old at the time of evaluation) were used for the test in groups of 10 mice. The mice were placed in a water bath (inner diameter 14.5 cm, height 20 cm, water temperature about 24° C.) with water filled to a height of about 15 cm, and a swimming trial was carried out for 15 minutes (training trial). The next day, mice were orally administered with a suspension of each compound (10 mL/kg, solvent: 0.5% methylcellulose aqueous solution) was orally administered to the mice, and four hours later, they were placed in the water bath. Immobility time (sec) was measured for six minutes immediately after that, and the ratio of the average immobility time of each compound administration group with respect to the average immobility time of a control group (10 mL/kg administration of 0.5% methylcellulose aqueous solution without a compound) was calculated.

Compared with `COCCOc1cc(OC)c2c(c1Cl)O[C@]1(C2=O)C(OC)=CC(=O)C[C@H]1C` [Example 2, (2S,5′R)-7-chloro-3′,4-dimethoxy-6-(2-methoxyethoxy)-5′-methyl-spiro [benzofuran-2,4′-cyclohex-2-ene]-1′,3-dione], `COC1=CC(=O)C[C@@H](C)[C@]12Oc1c(Cl)c(-c3ccc(OC)nc3)cc(OC)c1C2=O` [Example 31, (2S,5′R)-7-chloro-3′,4-dimethoxy-6-(6-methoxy-3-pyridyl)-5′-methyl-spiro [benzofuran-2,4′-cyclohex-2-ene]-1′,3-dione] is lower in response vs control in vivo at 10 mg/kg: 71% for the first, 68% for the second.

First: COC1=CC(=O)C[C@@H](C)[C@]12Oc1c(Cl)c(-c3ccn(C)n3)cc(OC)c1C2=O [Example 3, (2S,5′R)-7-chloro-3′,4-dimethoxy-5′-methyl-6-(1-methylpyrazol-3-yl) spiro [benzofuran-2,4′-cyclohex-2-ene]-1′,3-dione]
Second: CCn1ccc(-c2cc(OC)c3c(c2Cl)O[C@]2(C3=O)C(OC)=CC(=O)C[C@H]2C)n1 [Example 4, (2S,5′R)-7-chloro-6-(1-ethylpyrazol-3-yl)-3′,4-dimethoxy-5′-methyl-spiro [benzofuran-2,4′-cyclohex-2-ene]-1′,3-dione]
The response vs control in vivo at 10 mg/kg of the first is higher: 84% for the first, 61% for the second.

First: COC1=CC(=O)C[C@@H](C)[C@]12Oc1c(Cl)c(-c3nnc(C)o3)cc(OC)c1C2=O [Example 5, (2S,5′R)-7-chloro-3′,4-dimethoxy-5′-methyl-6-(5-methyl-1,3,4-oxadiazol-2-yl) spiro [benzofuran-2,4′-cyclohex-2-ene]-1′,3-dione]
Second: CCOc1cc(-c2nnc(C)o2)c(Cl)c2c1C(=O)[C@@]1(O2)C(OC)=CC(=O)C[C@H]1C [Example 22, (2S,5′R)-7-chloro-4-ethoxy-3′-methoxy-5′-methyl-6-(5-methyl-1,3,4-oxadiazol-2-yl) spiro [benzofuran-2,4′-cyclohex-2-ene]-1′,3-dione]
The response vs control in vivo at 10 mg/kg of the first is lower: 62% for the first, 88% for the second.

Compared with `COC1=CC(=O)C[C@@H](C)[C@]12Oc1c(Cl)c(-c3nc(C)no3)cc(OC)c1C2=O` [Example 6, (2S,5′R)-7-chloro-3′,4-dimethoxy-5′-methyl-6-(3-methyl-1,2,4-oxadiazol-5-yl) spiro [benzofuran-2,4′-cyclohex-2-ene]-1′,3-dione], `COC1=CC(=O)C[C@@H](C)[C@]12Oc1c(Cl)c(-c3nc(C(C)(C)O)no3)cc(OC)c1C2=O` [Example 25, (2S,5′R)-7-chloro-6-[3-(1-hydroxy-1-methyl-ethyl)-1,2,4-oxadiazol-5-yl]-3′,4-dimethoxy-5′-methyl-spiro [benzofuran-2,4′-cyclohex-2-ene]-1′,3-dione] is lower in response vs control in vivo at 10 mg/kg: 67% for the first, 58% for the second.

First: CCc1nnc(-c2cc(OC)c3c(c2Cl)O[C@]2(C3=O)C(OC)=CC(=O)C[C@H]2C)o1 [Example 17, (2S,5′R)-7-chloro-6-(5-ethyl-1,3,4-oxadiazol-2-yl)-3′,4-dimethoxy-5′-methyl-spiro [benzofuran-2,4′-cyclohex-2-ene]-1′,3-dione]
Second: COC1=CC(=O)C[C@@H](C)[C@]12Oc1c(Cl)c(-c3nnc([C@H](C)OC)o3)cc(OC)c1C2=O [Example 21, (2S,5′R)-7-chloro-3′,4-dimethoxy-6-[5-[(1S)-1-methoxyethyl]-1,3,4-oxadiazol-2-yl]-5′-methyl-spiro [benzofuran-2,4′-cyclohex-2-ene]-1′,3-dione]
The response vs control in vivo at 10 mg/kg of the first is lower: 72% for the first, 87% for the second.

Compared with `COC1=CC(=O)C[C@@H](C)[C@]12Oc1c(Cl)c(-c3nnc(C4CCOCC4)o3)cc(OC)c1C2=O` [Example 18, (2S,5′R)-7-chloro-3′,4-dimethoxy-5′-methyl-6-(5-tetrahydropyran-4-yl-1,3,4-oxadiazol-2-yl) spiro [benzofuran-2,4′-cyclohex-2-ene]-1′,3-dione], `COC1=CC(=O)C[C@@H](C)[C@]12Oc1c(Cl)c(C3=NOC4(CCOCC4)C3)cc(OC)c1C2=O` [Example 28, (2S,5′R)-7-chloro-6-(1,8-dioxa-2-azaspiro [4.5]dec-2-en-3-yl)-3′,4-dimethoxy-5′-methyl-spiro [benzofuran-2,4′-cyclohex-2-ene]-1′,3-dione] is lower in response vs control in vivo at 10 mg/kg: 85% for the first, 80% for the second.

First: COC1=CC(=O)C[C@@H](C)[C@]12Oc1c(Cl)c(-c3nc(C(C)OC)no3)cc(OC)c1C2=O (stereo partly drawn) [Example 24, (2S,5′R)-7-chloro-3′,4-dimethoxy-6-[3-(1-methoxyethyl)-1,2,4-oxadiazol-5-yl]-5′-methyl-spiro [benzofuran-2,4′-cyclohex-2-ene]-1′,3-dione]
Second: COC1=CC(=O)C[C@@H](C)[C@]12Oc1c(Cl)c(-c3cnc(OC)nc3)cc(OC)c1C2=O [Example 30, (2S,5′R)-7-chloro-3′,4-dimethoxy-6-(2-methoxypyrimidin-5-yl)-5′-methyl-spiro [benzofuran-2,4′-cyclohex-2-ene]-1′,3-dione]
The response vs control in vivo at 10 mg/kg of the first is lower: 65% for the first, 70% for the second.

Work on `COC1=CC(=O)C[C@@H](C)[C@]12Oc1c(Cl)c(-c3ccn[nH]3)cc(OC)c1C2=O` [Example 26, (2S,5′R)-7-chloro-3′,4-dimethoxy-5′-methyl-6-(1H-pyrazol-5-yl) spiro [benzofuran-2,4′-cyclohex-2-ene]-1′,3-dione] yielded a response vs control in vivo at 10 mg/kg of 72%.

same assay, conditions: Mus musculus, oral, dose 100 mg/kg, 4 hours after administration, immobility time measured for six minutes, ratio to control group (0.5% methylcellulose)

Compound `COC1=CC(=O)C[C@@H](C)[C@]12Oc1c(Cl)c(OC)cc(OC)c1C2=O` [Griseofulvin, (2S,5′R)-7-chloro-3′,4,6-trimethoxy-5′-methyl-spiro [benzofuran-2,4′-cyclohex-2-ene]-1′,3-dione] has a response vs control in vivo at 100 mg/kg of 72%.

— patent publication US11993593B2, “Griseofulvin compound and pharmaceutical use thereof” (Daiichi Sankyo Company, Limited, priority 2017, dated 2024)
